Data from patent US20240109972A1, “ANTIBODY AND TAXANE COMBINATION THERAPY” (Genmab A/S, priority 2020, published 2024).

System: solid malignant tumors
Test: GEN1046 Phase I dose escalation (NCT03917381), response by RECIST v1.1
Format: in vivo, human
Details: for CR (Complete Response), patients / Confirmed CR (Complete Response), patients / Confirmed Disease Control (PR + PR + SD) Rate, % / Confirmed Disease Control (PR + PR + SD) Rate, patients / Confirmed NE (Not Evaluable), % of patients / Confirmed NE (Not Evaluable), patients / Confirmed Objective Response (CR + PR) Rate, patients / Confirmed PD (Progressive Disease), % of patients / Confirmed PD (Progressive Disease), patients / Confirmed PR (Partial Response), patients / Confirmed SD (Stable Disease), % of patients / Confirmed SD (Stable Disease), patients / Disease Control (PR + PR + SD) Rate, % / Disease Control (PR + PR + SD) Rate, patients / NE (Not Evaluable), % of patients / NE (Not Evaluable), patients / Objective Response (CR + PR) Rate, patients / PD (Progressive Disease), % of patients / PD (Progressive Disease), patients / PR (Partial Response), patients / Confirmed Objective Response (CR + PR) Rate, % / Confirmed PR (Partial Response), % of patients / Objective Response (CR + PR) Rate, % / PR (Partial Response), % of patients: Oct. 12, 2020; for BOR Complete Response, (percent) / BOR Complete Response, patients / BOR Partial Response, (percent) / BOR Partial Response, patients / BOR Progressive Disease, (percent) / BOR Progressive Disease, patients / BOR Stable Disease, (percent) / BOR Stable Disease, patients: 3 Feb. 2020
From the text: The resistance to, failure to respond to and/or relapse from treatment with a binding agent of the invention and/or other therapeutic agent(s) may be determined according to the Response Evaluation Criteria In Solid Tumors; version 1.1 (RECIST Criteria v1.1).
The “best overall response” is the best response recorded from the start of the treatment until disease progression/recurrence (the smallest measurements recorded since the treatment started will be used as the reference for PD). Subjects with CR or PR are considered to be objective response. Subjects with CR, PR or SD are considered to be in disease control. Subjects with NE are counted as non-responders. […]
Clinical trial on GCT1046-01 (ClinicalTrials.gov Identifier: NCT03917381) was designed as a two-part trial, including an ongoing dose escalation part and a planned expansion part.
The trial consists of 2 parts; a First-in-Human (FIH) dose escalation (Phase I) and an expansion (Phase 11a).
For dose escalation, subject was required to be a man or […] and was required to have measurable disease according to RECIST 1.1.

Which results are given for “GEN1046: PD-L1×4-1BB bispecific antibody: PD-L1-547-FEAL combined with CD137-009-HC7LC2-FEAR (SEQ ID NOs: 1, 5, 21, 19; 8, 12, 22, 20)”?
CR (Complete Response), patients (25 mg (N 4)): 0; Confirmed CR (Complete Response), patients (25 mg (N 4)): 0; Confirmed Disease Control (PR + PR + SD) Rate, % (25 mg (N 4)): 25.0%; Confirmed Disease Control (PR + PR + SD) Rate, patients (25 mg (N 4)): 1; Confirmed NE (Not Evaluable), % of patients (25 mg (N 4)): 25.0%; Confirmed NE (Not Evaluable), patients (25 mg (N 4)): 1; Confirmed Objective Response (CR + PR) Rate, patients (25 mg (N 4)): 0; Confirmed PD (Progressive Disease), % of patients (25 mg (N 4)): 50.0%; Confirmed PD (Progressive Disease), patients (25 mg (N 4)): 2; Confirmed PR (Partial Response), patients (25 mg (N 4)): 0; Confirmed SD (Stable Disease), % of patients (25 mg (N 4)): 25.0%; Confirmed SD (Stable Disease), patients (25 mg (N 4)): 1; Disease Control (PR + PR + SD) Rate, % (25 mg (N 4)): 25.0%; Disease Control (PR + PR + SD) Rate, patients (25 mg (N 4)): 1; NE (Not Evaluable), % of patients (25 mg (N 4)): 25.0%; NE (Not Evaluable), patients (25 mg (N 4)): 1; Objective Response (CR + PR) Rate, patients (25 mg (N 4)): 0; PD (Progressive Disease), % of patients (25 mg (N 4)): 50.0%; PD (Progressive Disease), patients (25 mg (N 4)): 2; PR (Partial Response), patients (25 mg (N 4)): 0; BOR Complete Response, (percent) (25 mg (n = 2)): (0); BOR Complete Response, patients (25 mg (n = 2)): 0; BOR Partial Response, (percent) (25 mg (n = 2)): (0); BOR Partial Response, patients (25 mg (n = 2)): 0; BOR Progressive Disease, (percent) (25 mg (n = 2)): (100); BOR Progressive Disease, patients (25 mg (n = 2)): 2; BOR Stable Disease, (percent) (25 mg (n = 2)): (0); BOR Stable Disease, patients (25 mg (n = 2)): 0; CR (Complete Response), patients (50 mg (N 5)): 0; Confirmed CR (Complete Response), patients (50 mg (N 5)): 0; Confirmed Disease Control (PR + PR + SD) Rate, % (50 mg (N 5)): 60.0%; Confirmed Disease Control (PR + PR + SD) Rate, patients (50 mg (N 5)): 3; Confirmed NE (Not Evaluable), patients (50 mg (N 5)): 0; Confirmed Objective Response (CR + PR) Rate, patients (50 mg (N 5)): 0; Confirmed PD (Progressive Disease), % of patients (50 mg (N 5)): 40.0%; Confirmed PD (Progressive Disease), patients (50 mg (N 5)): 2; Confirmed PR (Partial Response), patients (50 mg (N 5)): 0; Confirmed SD (Stable Disease), % of patients (50 mg (N 5)): 60.0%; Confirmed SD (Stable Disease), patients (50 mg (N 5)): 3; Disease Control (PR + PR + SD) Rate, % (50 mg (N 5)): 60.0%; Disease Control (PR + PR + SD) Rate, patients (50 mg (N 5)): 3; NE (Not Evaluable), patients (50 mg (N 5)): 0; Objective Response (CR + PR) Rate, patients (50 mg (N 5)): 0; PD (Progressive Disease), % of patients (50 mg (N 5)): 40.0%; PD (Progressive Disease), patients (50 mg (N 5)): 2; PR (Partial Response), patients (50 mg (N 5)): 0; BOR Complete Response, (percent) (50 mg (n = 5)): (0); BOR Complete Response, patients (50 mg (n = 5)): 0; BOR Partial Response, (percent) (50 mg (n = 5)): (0); BOR Partial Response, patients (50 mg (n = 5)): 0; BOR Progressive Disease, (percent) (50 mg (n = 5)): (40); BOR Progressive Disease, patients (50 mg (n = 5)): 2; BOR Stable Disease, (percent) (50 mg (n = 5)): (60); BOR Stable Disease, patients (50 mg (n = 5)): 3; CR (Complete Response), patients (80 mg (N 9)): 0; Confirmed CR (Complete Response), patients (80 mg (N 9)): 0; Confirmed Disease Control (PR + PR + SD) Rate, % (80 mg (N 9)): 88.9%; Confirmed Disease Control (PR + PR + SD) Rate, patients (80 mg (N 9)): 8; Confirmed NE (Not Evaluable), patients (80 mg (N 9)): 0; Confirmed Objective Response (CR + PR) Rate, % (80 mg (N 9)): 11.1%; Confirmed Objective Response (CR + PR) Rate, patients (80 mg (N 9)): 1; Confirmed PD (Progressive Disease), % of patients (80 mg (N 9)): 11.1%; Confirmed PD (Progressive Disease), patients (80 mg (N 9)): 1; Confirmed PR (Partial Response), % of patients (80 mg (N 9)): 11.1%; Confirmed PR (Partial Response), patients (80 mg (N 9)): 1; Confirmed SD (Stable Disease), % of patients (80 mg (N 9)): 77.8%; Confirmed SD (Stable Disease), patients (80 mg (N 9)): 7; Disease Control (PR + PR + SD) Rate, % (80 mg (N 9)): 88.9%; Disease Control (PR + PR + SD) Rate, patients (80 mg (N 9)): 8; NE (Not Evaluable), patients (80 mg (N 9)): 0; Objective Response (CR + PR) Rate, % (80 mg (N 9)): 22.2%; Objective Response (CR + PR) Rate, patients (80 mg (N 9)): 2; PD (Progressive Disease), % of patients (80 mg (N 9)): 11.1%; PD (Progressive Disease), patients (80 mg (N 9)): 1; PR (Partial Response), % of patients (80 mg (N 9)): 22.2%; PR (Partial Response), patients (80 mg (N 9)): 2; BOR Complete Response, (percent) (80 mg (n = 8)): (0); BOR Complete Response, patients (80 mg (n = 8)): 0; BOR Progressive Disease, (percent) (80 mg (n = 8)): (12.5); BOR Progressive Disease, patients (80 mg (n = 8)): 1; BOR Stable Disease, (percent) (80 mg (n = 8)): (62.5); BOR Stable Disease, patients (80 mg (n = 8)): 5; BOR Partial Response, (percent) (80 mg (n = 8), uPR): (25); BOR Partial Response, patients (80 mg (n = 8), uPR): 2^1; CR (Complete Response), patients (100 mg (N 6)): 0; Confirmed CR (Complete Response), patients (100 mg (N 6)): 0; Confirmed Disease Control (PR + PR + SD) Rate, % (100 mg (N 6)): 66.7%; Confirmed Disease Control (PR + PR + SD) Rate, patients (100 mg (N 6)): 4; Confirmed NE (Not Evaluable), % of patients (100 mg (N 6)): 33.3%; Confirmed NE (Not Evaluable), patients (100 mg (N 6)): 2; Confirmed Objective Response (CR + PR) Rate, % (100 mg (N 6)): 16.7%; Confirmed Objective Response (CR + PR) Rate, patients (100 mg (N 6)): 1; Confirmed PD (Progressive Disease), patients (100 mg (N 6)): 0; Confirmed PR (Partial Response), % of patients (100 mg (N 6)): 16.7%; Confirmed PR (Partial Response), patients (100 mg (N 6)): 1; Confirmed SD (Stable Disease), % of patients (100 mg (N 6)): 50.0%; Confirmed SD (Stable Disease), patients (100 mg (N 6)): 3; Disease Control (PR + PR + SD) Rate, % (100 mg (N 6)): 66.7%; Disease Control (PR + PR + SD) Rate, patients (100 mg (N 6)): 4; NE (Not Evaluable), % of patients (100 mg (N 6)): 33.3%; NE (Not Evaluable), patients (100 mg (N 6)): 2; Objective Response (CR + PR) Rate, % (100 mg (N 6)): 16.7%; Objective Response (CR + PR) Rate, patients (100 mg (N 6)): 1; PD (Progressive Disease), patients (100 mg (N 6)): 0; PR (Partial Response), % of patients (100 mg (N 6)): 16.7%; PR (Partial Response), patients (100 mg (N 6)): 1; CR (Complete Response), patients (140 mg (N 6)): 0; Confirmed CR (Complete Response), patients (140 mg (N 6)): 0; Confirmed Disease Control (PR + PR + SD) Rate, % (140 mg (N 6)): 50.0%; Confirmed Disease Control (PR + PR + SD) Rate, patients (140 mg (N 6)): 3; Confirmed NE (Not Evaluable), % of patients (140 mg (N 6)): 16.7%; Confirmed NE (Not Evaluable), patients (140 mg (N 6)): 1; Confirmed Objective Response (CR + PR) Rate, patients (140 mg (N 6)): 0; Confirmed PD (Progressive Disease), % of patients (140 mg (N 6)): 33.3%; Confirmed PD (Progressive Disease), patients (140 mg (N 6)): 2; Confirmed PR (Partial Response), patients (140 mg (N 6)): 0; Confirmed SD (Stable Disease), % of patients (140 mg (N 6)): 50.0%; Confirmed SD (Stable Disease), patients (140 mg (N 6)): 3; Disease Control (PR + PR + SD) Rate, % (140 mg (N 6)): 50.0%; Disease Control (PR + PR + SD) Rate, patients (140 mg (N 6)): 3; NE (Not Evaluable), % of patients (140 mg (N 6)): 16.7%; NE (Not Evaluable), patients (140 mg (N 6)): 1; Objective Response (CR + PR) Rate, patients (140 mg (N 6)): 0; PD (Progressive Disease), % of patients (140 mg (N 6)): 33.3%; PD (Progressive Disease), patients (140 mg (N 6)): 2; PR (Partial Response), patients (140 mg (N 6)): 0; BOR Complete Response, (percent) (140 mg (n = 1)): (0); BOR Complete Response, patients (140 mg (n = 1)): 0; BOR Partial Response, (percent) (140 mg (n = 1)): (0); BOR Partial Response, patients (140 mg (n = 1)): 0; BOR Progressive Disease, (percent) (140 mg (n = 1)): (100); BOR Progressive Disease, patients (140 mg (n = 1)): 1
